In BindingDB's records for doi:10.1002/cbic.200300724 (The Scripps Research Institute, 2003):
Several values for one entry are separate records, joined by “and”; a condition that tells them apart may be missing. Identical values can stand only once.

Target: T1, Gag-Pol polyprotein [489-587,G537V,H558K,V571A] (Human immunodeficiency virus, UniProt P12497, G537V/H558K/V571A)
T1 construct: 489-587
Test: Inhibiton Activity Assay
Method: The inhibition activity against HIV-1 PR and three mutants (G48V, V82F, V82A)were done in 96 well microtiter plate and were assayed. Wells that showed 50% inhibition of the enzyme activity were selected and diluted to 10nM and screened again.

SMILES	IC50	Ki
COc1ccc(S(=O)(=O)N(CC(C)C)C[C@@H](O)[C@H](Cc2ccccc2)n2cc(COC(=O)N[C@H]3c4ccccc4C[C@H]3O)nn2)cc1 [HIV-1 PR Inhibitor, compound 6]	6 nM and 19 nM and 39 nM and 46 nM	
COc1ccc(S(=O)(=O)N(CC(C)C)C[C@@H](O)[C@H](Cc2ccccc2)n2cc(CNC(=O)c3ccc(CNC(=O)OC(C)(C)C)cc3)nn2)cc1 [HIV-1 PR Inhibitor, compound 8]	13 nM and 24 nM and 17 nM and 52 nM	4 nM and 13 nM and 9.7 nM and 30 nM
